Here are results for 32 compounds from patent US9890133B2 (priority 2011, dated 2018).

Series [1] in a line: in vitro. The conditions noted are these: human.
Series [2] deals with Poliovirus 3. The series is described as follows: microbe, parasite or virus in culture. It is filed as cell-based. The conditions noted are these: Enterovirus C, read-out: Poliovirus3 EC50.

In brackets after ≈: the same amount, converted by molar mass.

In general, melting point refers to the temperature of the solid-liquid transition. With `CCOC(=O)N[C@@]12C(=O)c3ccccc3[C@]1(O)Oc1cc(C(C)C)ccc12`, the melting point fell in the range of 115 to 118 °C.
`CC(=O)O[C@@]12Oc3cc(C(C)C)ccc3[C@]1(OC(C)=O)C(=O)c1c(NS(C)(=O)=O)cccc12` (stereo in doubt) [Example 54, acetic acid 4b-acetoxy-7-isopropyl-1-methanesulfonylamino-10-oxo-4b,10-dihydro-5-oxa-indeno[2,1-a]inden-9b-yl ester] yielded a melting point of 96 to 100 °C. In series [1] (Picorana CC50), the CC50 was over 50 µg/mL.
In the same order, the values of `Cc1ccc2c(c1)OC1(O)c3ccccc3C(=O)C21O` (stereo not shown) [Example 1, 4b,9b-Dihydroxy-7-methyl-4bH-benzo[d]indeno[1,2-b]furan-10(9bH)-one] are 145 to 147 °C and over 50 µg/mL.
Consider `CC(=O)OC12Oc3cc(C)ccc3C1(OC(C)=O)C(=O)c1ccccc12` (stereo not shown) [Example 2, 7-Methyl-10-oxo-9b,10-dihydro-4bH-benzo[d]indeno[1,2-b]furane-4b,9b-diyl diacetate], for which the melting point was 167 to 169 °C. This compound had a CC50 in series [1] (Picorana CC50) of over 50 µg/mL.
In the same order, the values of `CCOC(=O)Cc1cc(OC)c2c(c1)C1(O)C(=O)c3ccccc3C1(O)O2` (stereo not shown) [Example 3, Ethyl 2-(4b,9b-dihydroxy-6-methoxy-10-oxo-9b,10-dihydro-4bH-benzo[d]indeno[1,2-b]furane-8-yl)acetate] are 133 to 136 °C and over 50 µg/mL.
In turn, `Cc1cc2c(cc1C)C1(O)C(=O)c3ccccc3C1(O)O2` (stereo not shown) [Example 4, 4b,9b-dihydroxy-7,8-dimethyl-4bH-benzo[d]indeno[1,2-b]furan-10(9bH)-one] had a melting point of 198 to 200 °C. Also, the CC50 in series [1] (Picorana CC50) was over 50 µg/mL.
As for `COc1ccc2c(c1)OC1(O)c3ccccc3C(=O)C21O` (stereo not shown) [Example 7, 4b,9b-Dihydroxy-7-methoxy-4bH-benzo[d]indeno[1,2-b]furan-10(9bH)-one], the melting point lay in the range of 98 to 100 °C. Besides, in series [1] (Picorana CC50), the CC50 is over 50 µg/mL.
In the same order, the values of `O=C1c2ccccc2C2(O)Oc3c(ccc(Cl)c3Cl)C12O` (stereo not shown) [Example 8, 6,7-Dichloro-4b,9b-dihydroxy-4bH-benzo[d]indeno[1,2-b]furan-10(9bH)-one] are 142 to 150 °C and 44.1 µg/mL (≈ 136 µM).
`CCc1ccc2c(c1)OC1(O)c3ccccc3C(=O)C21O` (stereo not shown) [Example 9, 7-Ethyl-4b,9b-dihydroxy-4bH-benzo[d]indeno[1,2-b]furan-10(9bH)-one]: the melting point lay in the range of 168 to 169 °C. Moreover, the CC50 in series [1] (Picorana CC50) came out at 18 µg/mL (≈ 63.8 µM).
`CC(=O)OC12Oc3cc(C(C)C)ccc3C1(OC(C)=O)C(=O)c1ccccc12` (stereo not shown) [Example 11, 7-Isopropyl-10-oxo-9b,10-dihydro-4bH-benzo[d]indeno[1,2-b]furane-4b,9b-diyl diacetate] yielded a melting point of 138 to 140 °C. This compound gave a CC50 in series [1] (Picorana CC50) of 16.2 µg/mL.
In the same order, the values of `COc1ccc2c(c1)C1(O)C(=O)c3ccccc3C1(O)O2` (stereo not shown) [Example 12, 4b,9b-Dihydroxy-8-methoxy-4bH-benzo[d]indeno[1,2-b]furan-10(9bH)-one] are 186 to 189 °C and over 50 µg/mL.
In turn, `O=C1c2ccccc2C2(O)Oc3c(-c4ccccc4)cccc3C12O` (stereo not shown) [Example 13, 4b,9b-Dihydroxy-6-phenyl-4bH-benzo[d]indeno[1,2-b]furan-10(9bH)-one] had a melting point of 182 to 183 °C. Further, in series [1] (Picorana CC50), the CC50 was determined as 8.08 µg/mL (≈ 24.5 µM).
The matching figures for `O=C1c2ccccc2C2(O)Oc3ccc([N+](=O)[O-])cc3C12O` (stereo not shown) [Example 14, 4b,9b-Dihydroxy-8-nitro-4bH-benzo[d]indeno[1,2-b]furan-10(9bH)-one]: 206 to 207 °C and over 50 µg/mL.
The matching figures for `O=C1c2ccccc2C2(O)Oc3cc4ccccc4cc3C12O` (stereo not shown) [Example 15, 4b,11b-Dihydroxy-4bH-indeno[1,2-b]naphtho[2,3-d]furan-12(11 bH)-one]: 220 to 221 °C and 8.57 µg/mL (≈ 28.2 µM).
The matching figures for `O=C1c2ccccc2C2(O)Oc3c(ccc4ccccc34)C12O` (stereo not shown) [Example 16, 6b,11b-Dihydroxy-6bH-indeno[1,2-b]naphtho[2,1-d]furan-7(11 bH)-one]: 216 to 218 °C and 7.82 µg/mL (≈ 25.7 µM).
`CCCc1ccc2c(c1)C1(O)C(=O)c3ccccc3C1(O)O2` (stereo not shown) [Example 17, 4b,9b-Dihydroxy-8-propyl-4bH-benzo[d]indeno[1,2-b]furan-10(9bH)-one] displayed a melting point of 126 to 127 °C. This compound also registered a CC50 in series [1] (Picorana CC50) of 7.85 µg/mL (≈ 26.5 µM).
Take `CCc1ccc2c(c1)C1(O)C(=O)c3ccccc3C1(O)O2` (stereo not shown) [Example 18, 8-Ethyl-4b,9b-dihydroxy-4bH-benzo[d]indeno[1,2-b]furan-10(9bH)-one]: the melting point was in the range of 157 to 159 °C. In addition, in series [1] (Picorana CC50), the CC50 was 37.5 µg/mL (≈ 133 µM).
The matching figures for `CCC(C)c1ccc2c(c1)C1(O)C(=O)c3ccccc3C1(O)O2` (stereo not shown) [Example 19, 8-sec-Butyl-4b,9b-dihydroxy-4bH-benzo[d]indeno[1,2-b]furan-10(9bH)-one]: 134 to 136 °C and 8.34 µg/mL (≈ 26.9 µM).
On to `CC(C)(C)c1ccc2c(c1)C1(O)C(=O)c3ccccc3C1(O)O2` (stereo not shown) [Example 20, 8-tert-Butyl-4b,9b-dihydroxy-4bH-benzo[d]indeno[1,2-b]furan-10(9bH)-one], for which the melting point is 187 to 188 °C. Besides, in series [1] (Picorana CC50), the CC50 was found to be 7.93 µg/mL (≈ 25.6 µM).
As for `CC(C)(C)c1cccc2c1OC1(O)c3ccccc3C(=O)C21O` (stereo not shown) [Example 21, 6-tert-Butyl-4b,9b-dihydroxy-4bH-benzo[d]indeno[1,2-b]furan-10(9bH)-one], the melting point was 148 to 152 °C. The CC50 in series [1] (Picorana CC50) is 32.1 µg/mL (≈ 103 µM).
Compound `Cc1cc2c(c(C)c1C)C1(O)C(=O)c3ccccc3C1(O)O2` (stereo not shown) [Example 22, 4b,9b-Dihydroxy-7,8,9-trimethyl-4bH-benzo[d]indeno[1,2-b]furan-10(9bH)-one] had a melting point of 212 to 214 °C. Besides, the CC50 in series [1] (Picorana CC50) stood at 8.01 µg/mL (≈ 27 µM).
`CCC(C)(C)c1ccc2c(c1)C1(O)C(=O)c3ccccc3C1(O)O2` (stereo not shown) [Example 23, 4b,9b-Dihydroxy-8-tert-pentyl-4bH-benzo[d]indeno[1,2-b]furan-10(9bH)-one] gave a melting point of 175 to 176 °C. For the same compound, in series [1] (Picorana CC50), the CC50 was 9.3 µg/mL (≈ 28.7 µM).
In the same order, the values of `CC(C)(C)c1cc(C(C)(C)C)c2c(c1)C1(O)C(=O)c3ccccc3C1(O)O2` (stereo not shown) [Example 24, 6,8-di-tert-Butyl-4b,9b-dihydroxy-4bH-benzo[d]indeno[1,2-b]furan-10(9bH)-one] are 200 to 203 °C and 8.8 µg/mL (≈ 24 µM).
In turn, `CC(=O)OC12Oc3c(C(C)(C)C)cc(C(C)(C)C)cc3C1(OC(C)=O)C(=O)c1ccccc12` (stereo not shown) [Example 25, 6,8-di-tert-Butyl-10-oxo-9b,10-dihydro-4bH-benzo[d]indeno[1,2-b]furane-4b,9b-diyl diacetate] yielded a melting point of 242 to 247 °C. In series [1] (Picorana CC50), the CC50 is over 50 µg/mL.
Take `CCCCCCCCCc1ccc2c(c1)C1(O)C(=O)c3ccccc3C1(O)O2` (stereo not shown) [Example 26, 4b,9b-Dihydroxy-8-nonyl-4bH-benzo[d]indeno[1,2-b]furan-10(9bH)-one]: the melting point fell in the range of 108 to 110 °C. In addition, the CC50 in series [1] (Picorana CC50) is under 4 µg/mL.
The compound `CCCCCCCCCCCCCCCc1ccc2c(c1)C1(O)C(=O)c3ccccc3C1(O)O2` (stereo not shown) [Example 27, 4b,9b-Dihydroxy-8-pentadecyl-4bH-benzo[d]indeno[1,2-b]furan-10(9bH)-one] registered a melting point of 105 to 110 °C. For the same compound, the CC50 in series [1] (Picorana CC50) worked out at 43.9 µg/mL (≈ 94.5 µM).
A word on the EC50: it is the concentration that produces a half-maximal response. Regarding `Cc1ccnc2nc(C(=O)NC34C(=O)c5c(N)cccc5C3(O)Oc3cc(C(C)C)ccc34)nn12` (stereo not shown) [Example 281, N-(1-Amino-4b-hydroxy-7-isopropyl-10-oxo-9b,10-dihydro-4bH-indeno[1,2-b]benzofuran-9b-yl)-7-methyl-[1,2,4]triazolo[1,5-a]pyrimidine-2-carboxamide], the EC50 in series [2] is 0.025 µg/mL (≈ 0.0531 µM). This compound came in with a CC50 in series [1] of over 10 µg/mL.
The matching figures for `CC(C)c1ccc2c(c1)OC1(O)c3cccc(N)c3C(=O)C21NC(=O)c1cn2cccnc2n1` (stereo not shown) [Example 285, N-(1-Amino-4b-hydroxy-7-isopropyl-10-oxo-9b,10-dihydro-4bH-indeno[1,2-b]benzofuran-9b-yl)imidazo[1,2-a]pyrimidine-2-carboxamide]: under 0.01 µg/mL and over 10 µg/mL.
In the case of `CC(C)c1ccc2c(c1)OC1(O)c3cccc(N)c3C(=O)C21NC(=O)c1cc2ccccc2c(=O)[nH]1` (stereo not shown) [Example 286, N-(1-Amino-4b-hydroxy-7-isopropyl-10-oxo-9b,10-dihydro-4bH-indeno[1,2-b]benzofuran-9b-yl)-1-oxo-1,2-dihydroisoquinoline-3-carboxamide], the EC50 in series [2] is under 0.01 µg/mL. Further, the CC50 is 4.04 µg/mL (≈ 8.39 µM) in series [1] and 4.28 µg/mL (≈ 8.89 µM) in series [1] (Picorana CC50).
`Cc1nc(C(=O)NC23C(=O)c4c(N)cccc4C2(O)Oc2cc(C(C)C)ccc23)c2ccccn12` (stereo not shown) [Example 287, N-(1-Amino-4b-hydroxy-7-isopropyl-10-oxo-9b,10-dihydro-4bH-benzo[d]indeno[1,2-b]furan-9b-yl)-3-methylimidazo[1,5-a]pyridine-1-carboxamide]: the EC50 in series [2] was determined as 0.036 µg/mL (≈ 0.0768 µM). The CC50 was over 10 µg/mL in series [1] and 7.01 µg/mL (≈ 15 µM) in series [1] (Picorana CC50).
As for `CC(C)c1ccc2c(c1)OC1(O)c3cccc(N)c3C(=O)C21NC(=O)c1nc2ccccc2[nH]1` (stereo not shown) [Example 290, N-(1-Amino-4b-hydroxy-7-isopropyl-10-oxo-9b,10-dihydro-4bH-indeno[1,2-b]benzofuran-9b-yl)-1H-benzo[d]imidazole-2-carboxamide], the EC50 in series [2] was 0.032 µg/mL (≈ 0.0704 µM). Besides, the CC50 is 4.51 µg/mL (≈ 9.92 µM) in series [1] and 4.32 µg/mL (≈ 9.51 µM) in series [1] (Picorana CC50).
The matching figures for `CC(C)c1ccc2c(c1)OC1(O)c3cccc(N)c3C(=O)C21NC(=O)c1nc2cc(F)ccc2[nH]1` (stereo not shown) [Example 291, N-(1-Amino-4b-hydroxy-7-isopropyl-10-oxo-9b,10-dihydro-4bH-indeno[1,2-b]benzofuran-9b-yl)-5-fluoro-1H-benzo[d]imidazole-2-carboxamide]: 0.036 µg/mL (≈ 0.0762 µM), 4.51 µg/mL (≈ 9.55 µM) and 4.43 µg/mL (≈ 9.38 µM).
